Measurements: patent publication US20040106626A1, “6-Membered unsaturated heterocyclic compounds useful for selective inhibition of the coagulation cascade” (Pharmacia Corporation, priority 2001, published 2004)

How the values were obtained:
Assay type in all cases: biochemical
[1] = system: Normal human pooled plasma; assay: Prothrombin time (PT) clotting assay; conditions: concentration at which prothrombin time is prolonged by 2x normal, reported as less than or greater than 50 uM
Experimental: The prothrombin time (PT) assay is a clotting assay that is used to determine deficiencies of clotting factor activity in the extrinsic pathway. The assay measures time to clotting after the addition of thromboplastin (human tissue factor). Normal human pooled plasma is incubated with 100 uM compound or saline in a coagulation machine. Thromboplastin is added and time to clotting is measured. Compounds with greater than 3×normal PT of 11.0 seconds are further analyzed by concentration response to determine at what concentration the prothrombin time is prolonged by 2×normal.

[2] = molecular target: T1, recombinant soluble tissue factor and recombinant human factor VIIa (TF-VIIa) (Homo sapiens, UniProt P08709); assay: TF-VIIa assay (chromogenic substrate hydrolysis); conditions: reported only as less than or greater than 0.1 uM
T1 construct: conversion of coagulation factor VII to VIIa by factor Xa; purchased American Diagnostica, Greenwich CT; host or cells: soluble TF made in house in E. coli
T1 sequence (P08709 213-466 limits assumed): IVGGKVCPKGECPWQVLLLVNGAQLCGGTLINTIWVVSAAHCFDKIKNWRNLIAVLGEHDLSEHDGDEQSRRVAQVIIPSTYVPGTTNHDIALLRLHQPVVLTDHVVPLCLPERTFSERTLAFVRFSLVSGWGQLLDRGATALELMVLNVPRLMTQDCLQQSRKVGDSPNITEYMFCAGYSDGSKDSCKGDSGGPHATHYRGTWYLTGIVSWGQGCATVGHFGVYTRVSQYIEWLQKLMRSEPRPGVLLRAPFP
T1 sequence (P08709 61-212 limits assumed): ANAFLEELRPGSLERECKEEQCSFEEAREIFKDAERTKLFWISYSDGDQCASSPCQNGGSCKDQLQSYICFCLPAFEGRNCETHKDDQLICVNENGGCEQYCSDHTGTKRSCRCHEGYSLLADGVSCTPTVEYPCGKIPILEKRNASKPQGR
T1 sequence (P13726 33-251 partner limits assumed): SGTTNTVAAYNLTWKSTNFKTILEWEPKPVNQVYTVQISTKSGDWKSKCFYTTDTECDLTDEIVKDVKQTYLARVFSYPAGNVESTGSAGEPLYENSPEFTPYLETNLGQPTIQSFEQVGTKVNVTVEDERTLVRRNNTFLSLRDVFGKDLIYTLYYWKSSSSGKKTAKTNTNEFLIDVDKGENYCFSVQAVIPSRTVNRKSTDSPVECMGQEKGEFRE
Experimental: In this assay 100 nM recombinant soluble tissue factor and 2 nM recombinant human factor VIIa are added to a 96-well assay plate containing 0.4 mM of the substrate, N-methylsulfonyl-D-phe-gly-arg-p-nitroaniline and either inhibitor or buffer (5 mM CaCl2, 50 mM Tris-HCl, pH 8.0, 100 mM NaCl, 0.1% BSA). […] Percent inhibition of TF-VIIa activity is calculated from OD405 nm value from the experimental and control sample.
(§1) Recombinant human VIIa was purchased from American Diagnostica, Greenwich CT and chromogenic substrate N-methylsulfonyl-D-phe-gly-arg-p-nitroaniline was prepared by American Peptide Company, Inc., Sunnyvale, Calif. Factor Xa was obtained from Enzyme Research Laboratories, South Bend Ind., thrombin from Calbiochem, La Jolla, Calif., and trypsin and L-BAPNA from Sigma, St. Louis Mo.

Human factor Xa = molecular target: T2, Human factor Xa (Homo sapiens, UniProt P00742); assay: Xa assay (chromogenic substrate S-2765); conditions: reported only as less than or greater than 30 uM; read-out: Factor Xa (II) IC50
T2 construct: purchased Enzyme Research Laboratories, South Bend Ind
T2 sequence (P00742 235-488 limits assumed): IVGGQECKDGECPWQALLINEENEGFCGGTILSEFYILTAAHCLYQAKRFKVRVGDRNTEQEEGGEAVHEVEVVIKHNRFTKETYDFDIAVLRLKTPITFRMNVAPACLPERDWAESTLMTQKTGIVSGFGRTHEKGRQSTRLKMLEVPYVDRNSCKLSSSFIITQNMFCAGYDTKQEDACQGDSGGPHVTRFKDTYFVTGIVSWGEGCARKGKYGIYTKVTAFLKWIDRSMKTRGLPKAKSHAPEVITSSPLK
T2 sequence (P00742 41-179 limits assumed): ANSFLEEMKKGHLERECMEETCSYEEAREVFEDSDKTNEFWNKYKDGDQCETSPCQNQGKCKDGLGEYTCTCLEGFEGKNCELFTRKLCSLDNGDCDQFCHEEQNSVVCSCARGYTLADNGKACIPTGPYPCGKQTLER
Experimental: Human factor Xa (0.3 nM) and 0.15 mM -a-Benzyloxycarbonyl-D-arginyl-L-glycyl-L-arginine-p-nitroaniline-dihydrochloride (S-2765) are added to a 96-well assay plate containing either inhibitor or buffer (50 mM Tris-HCl, pH 8.0, 100 mM NaCl, 0.1% BSA). The reaction, in a final volume of 100 ul is measured immediately at 405 nm to determine background absorbance. The plate is incubated at room temperature for 60 min, at which time the rate of hydrolysis of the substrate is measured by monitoring the reaction at 405 nm for the release of p-nitroaniline. Percent inhibition of Xa activity is calculated from OD405 nm value from the experimental and control sample.
Recombinant soluble TF, consisting of amino acids 1-219 of the mature protein sequence was expressed in E. coli and purified using a Mono Q Sepharose FPLC. Recombinant human VIIa was purchased from American Diagnostica, Greenwich CT and chromogenic substrate N-methylsulfonyl-D-phe-gly-arg-p-nitroaniline was prepared by American Peptide Company, Inc., Sunnyvale, Calif. Factor Xa was obtained from Enzyme Research Laboratories, South Bend Ind., thrombin from Calbiochem, La Jolla, Calif., and trypsin and L-BAPNA from Sigma, St. Louis Mo. The chromogenic substrates S-2765 and S-2238 were purchased from Chromogenix, Sweden.

Human thrombin = molecular target: T3, Human thrombin (Homo sapiens, UniProt P00734); assay: Thrombin assay (chromogenic substrate); conditions: reported only as less than or greater than 30 uM; read-out: Thrombin (II) IC50
T3 construct: converts prothrombin (II) to thrombin (IIa); purchased Calbiochem, La Jolla, Calif
Experimental: Percent inhibition of thrombin activity is calculated from OD405 nm value from the experimental and control sample.
as §1

| Compound | IC50 [2] | IC50 (Human factor Xa) | IC50 (Human thrombin) | PT (Prothrombin time) 2xPT [1] |
| --- | --- | --- | --- | --- |
| CC(C)Nc1ncc(-c2cc(N)cc(C(=O)O)c2)n(CC(=O)NCc2ccc(C(=N)N)cc2)c1=O [Example 16, 3-amino-5-[1-[2-({4-[amino(imino)methyl]benzyl}amino)-2-oxoethyl]-5-(isopropylamino)-6-oxo-1,6-dihydropyrazin-2-yl]benzoic Acid Trifluoracetate] |  |  |  | <50.0 µM |
| CC(C)Nc1ncc(-c2cc(N)cc(C(=O)NCc3cccc(F)c3)c2)n(CC(=O)NCc2ccc(C(=N)N)cc2)c1=O.O=C(O)C(F)(F)F.O=C(O)C(F)(F)F [Example 29] |  |  |  | <50.0 µM |
| CC(C)Nc1ncc(-c2cc(N)cc(N)c2)n(CC(=O)NCc2cc(O)c(C(=N)N)c(F)c2)c1=O.O=C(O)C(F)(F)F [Example 117] |  |  |  | <50.0 µM |
| CCCCNc1cc(N)cc(-c2cnc(NC(C)C)c(=O)n2CC(=O)NCc2ccc(C(=N)N)cc2)c1.O=C(O)C(F)(F)F.O=C(O)C(F)(F)F [Example 145] | < 0.1 µM |  |  | <50.0 µM |
| CC(C)Nc1ncc(-c2cc(N)cc(NCC3CCNCC3)c2)n(CC(=O)NCc2ccc(C(=N)N)cc2)c1=O.O=C(O)C(F)(F)F.O=C(O)C(F)(F)F [Example 146] | < 0.1 µM |  |  | <50.0 µM |
| CC(C)Nc1ncc(-c2cc(N)cc(NCC3CCCNC3)c2)n(CC(=O)NCc2ccc(C(=N)N)cc2)c1=O.O=C(O)C(F)(F)F.O=C(O)C(F)(F)F (stereo not shown) [Example 147] | < 0.1 µM |  |  | <50.0 µM |
| CC(C)Nc1ncc(-c2cc(N)cc(NC3CCCC3)c2)n(CC(=O)NCc2ccc(C(=N)N)cc2)c1=O.O=C(O)C(F)(F)F.O=C(O)C(F)(F)F [Example 148] | < 0.1 µM |  |  | <50.0 µM |
| CC(C)Nc1ncc(-c2cc(N)cc(NCC(C)(C)C)c2)n(CC(=O)NCc2ccc(C(=N)N)cc2)c1=O.O=C(O)C(F)(F)F.O=C(O)C(F)(F)F [Example 152] |  |  |  | <50.0 µM |
| CC(C)Nc1ncc(-c2cc(N)cc(NCCC(C)(C)C)c2)n(CC(=O)NCc2ccc(C(=N)N)cc2)c1=O.O=C(O)C(F)(F)F.O=C(O)C(F)(F)F [Example 153] |  |  |  | <50.0 µM |
| CC(C)Nc1ncc(-c2cc(N)cc(C(F)(F)F)c2)n(CC(=O)NCc2ccc(C(=N)N)c(F)c2)c1=O.Cl [Example 154, N-{4-[amino(imino)methyl]-3-fluorobenzyl}-2-[6-[3-amino-5-(trifluoromethyl)phenyl]-3-(isopropylamino)-2-oxopyrazin-1 (2H)-yl]acetamide] |  |  |  | >50.0 µM |
| CC[C@H](C)NC(=O)c1cc(N)cc(-c2cnc(NC(C)C)c(=O)n2CC(=O)NCc2c(OC)cc(C(=N)N)cc2OC)c1 [Example 196] | > 0.1 µM | > 30 µM | > 30 µM |  |
| CC[C@@H](C)NC(=O)c1cc(N)cc(-c2cnc(NC(C)C)c(=O)n2CC(=O)NCc2c(OC)cc(C(=N)N)cc2OC)c1 [Example 197] | > 0.1 µM | > 30 µM | > 30 µM |  |
| CC[C@H](C)NC(=O)c1cc(N)cc(-c2cnc(NC(C)C)c(=O)n2CC(=O)NCc2c(O)cc(C(=N)N)cc2OCc2ccccc2)c1 [Example 242] | < 0.1 µM | > 30 µM | > 30 µM |  |

More lines, main results first:

| IC50 [2] | IC50 (Human factor Xa) | IC50 (Human thrombin) | Compound | PT (Prothrombin time) 2xPT [1] |
| --- | --- | --- | --- | --- |
| < 0.1 µM | > 30 µM | < 30 µM | CC(C)Nc1ncc(-c2cc(N)cc(F)c2)n(CC(=O)NCc2ccc(C(=N)N)cc2)c1=O [Example 52] |  |
| < 0.1 µM | > 30 µM | < 30 µM | CC(C)NC(=O)c1cc(N)cc(-c2cnc(NC(C)C)c(=O)n2CC(=O)NCc2ccc(C(=N)N)cc2)c1 [Example 60] |  |
| < 0.1 µM | > 30 µM | > 30 µM | CC(C)Nc1ncc(-c2cc(N)cc(-c3ccccc3)c2)n(CC(=O)NCc2ccc(C(=N)N)cc2)c1=O [Example 69, 2-[6-(5-amino-1,1′-biphenyl-3-yl)-3-(isopropylamino)-2-oxopyrazin-1 (2H)-yl]-N-{4-[amino(imino)methyl]benzyl}acetamide] |  |
| > 0.1 µM | > 30 µM | > 30 µM | CC(C)Nc1ncc(-c2cc(N)cc(C(F)(F)F)c2)n(CC(=O)NCc2ccc(C(=N)N)c(O)c2F)c1=O [Example 97] |  |
| < 0.1 µM |  |  | CCC(C)NC(=O)c1cc(N)cc(-c2cnc(NC(C)C)c(=O)n2CC(=O)NCc2ccc(C(=N)N)c(O)c2)c1 (stereo not shown) [Example 115] | <50.0 µM |
| < 0.1 µM | > 30 µM | < 30 µM | CC(C)Nc1ncc(-c2cc(N)cc(C(F)(F)F)c2)n(CC(=O)NCc2c(F)c(O)c(C(=N)N)c(F)c2F)c1=O [Example 126] |  |
| < 0.1 µM | > 30 µM | < 30 µM | CC(C)Nc1ncc(-c2cc(N)cc(NC(=O)C(C)(C)C)c2)n(CC(=O)NCc2ccc(C(=N)N)cc2)c1=O [Example 132] |  |
| < 0.1 µM | > 30 µM | < 30 µM | CCCCCC(C)C(=O)Nc1cc(N)cc(-c2cnc(NC(C)C)c(=O)n2CC(=O)NCc2ccc(C(=N)N)cc2)c1 (stereo not shown) [Example 138] |  |
| > 0.1 µM | > 30 µM | > 30 µM | COc1cc(N)cc(-c2cnc(NC(C)C)c(=O)n2CC(=O)NCc2cc(O)c(C(=N)N)c(F)c2)c1 [Example 168] |  |
| < 0.1 µM | > 30 µM | > 30 µM | CC[C@H](C)NC(=O)c1cc(N)cc(-c2cnc(NC(C)C)c(=O)n2CC(=O)NCc2ccc(C(=N)N)c(O)c2F)c1 [Example 173] |  |
| > 0.1 µM | > 30 µM | > 30 µM | CC(C)Nc1ncc(-c2cc(N)cc(O)c2)n(CC(=O)NCc2cc(O)c(C(=N)N)c(F)c2)c1=O [Example 180] |  |
| < 0.1 µM | > 30 µM | < 30 µM | CC[C@H](C)NC(=O)c1cc(N)cc(-c2cnc(NC3CC3)c(=O)n2CC(=O)NCc2ccc(C(=N)N)cc2)c1 [Example 183] |  |
| < 0.1 µM | > 30 µM | > 30 µM | COCCOCCOCCOC(=O)c1cc(N)cc(-c2cnc(NC(C)C)c(=O)n2CC(=O)NCc2ccc(C(=N)N)cc2)c1 [Example 200] |  |
| < 0.1 µM | > 30 µM | > 30 µM | COCCOCCOCCOCCOCCOCCOC(=O)c1cc(N)cc(-c2cnc(NC(C)C)c(=O)n2CC(=O)NCc2ccc(C(=N)N)cc2)c1 [Example 201] |  |
| < 0.1 µM | > 30 µM | < 30 µM | CC[C@H](C)NC(=O)c1cc(N)cc(-c2cnc(N[C@@H](C)CO)c(=O)n2CC(=O)NCc2ccc(C(=N)N)cc2)c1 [Example 208] |  |
| < 0.1 µM | > 30 µM | > 30 µM | CC(C)Nc1ncc(-c2cc(N)cc(OC(C)C(=O)O)c2)n(CC(=O)NCc2ccc(C(=N)N)cc2)c1=O (stereo not shown) [Example 226] |  |
| < 0.1 µM | > 30 µM | < 30 µM | CC[C@@H](C)NC(=O)c1cc(N)cc(-c2cnc(NC(C)(C)C)c(=O)n2CC(=O)NCc2ccc(C(=N)N)cc2)c1 [Example 256, 3-amino-5-[1-[2-({4-[amino(imino)methyl]benzyl}amino)-2-oxoethyl]-5-(tert-butylamino)-6-oxo-1,6-dihydropyrazin-2-yl]-N-[(lR)-1-methylpropyl]benzamide bis(trifluoroacetate)] |  |
| < 0.1 µM | > 30 µM | > 30 µM | CC[C@H](C)NC(=O)c1cc(N)cc(-c2cnc(NC)c(=O)n2CC(=O)NCc2ccc(C(=N)N)cc2)c1 [Example 257] |  |
| < 0.1 µM | > 30 µM | < 30 µM | CC[C@@H](C)NC(=O)c1cc(N)cc(-c2cnc(NC3CC3)c(=O)n2CC(=O)NCc2ccc(C(=N)N)cc2)c1 [Example 258] |  |
